Source: ChEMBL document CHEMBL5370685, “Novel 1,8-Naphthalimide Derivatives As Antitumor Agents and Potent Demethylase Inhibitors” (ACS Med Chem Lett, 2023)
The source made the active and inactive calls. The rule behind the calls is not given here.

Experiments:
A549 [1] = experiment: Antiproliferative activity against human A549 cells assessed as inhibition of cell growth; type: functional, cell-based
[2] = Antiproliferative activity against human A549R cells assessed as inhibition of cell growth; type: functional, cell-based
[3] = Antiproliferative activity against mouse A261 cells assessed as inhibition of cell growth; type: functional, cell-based
NB-4 = experiment: Antiproliferative activity against human NB4 cells assessed as inhibition of cell growth; type: functional, cell-based
A549 [4] = experiment: Induction of autophagy in human A549 cells assessed as downregulation of p62 protein expression at 3 to 9 uM incubated for 24 hrs by Western blot analysis; type: functional, cell-based; conditions: dose 3-9 µM
[5] = Cytotoxicity against HLF cells assessed as inhibition of cell growth; type: toxicity, cell-based; conditions: human
[6] = Selectivity index, ratio of IC50 for cytotoxicity against HLF cells to IC50 for antiproliferative activity against human A549 cells; type: cell-based; conditions: HLF cells versus A549 cells, read-out: Ratio IC50
A549 [7] = experiment: Effect on FTO expression in human A549 cells at 3 to 9 uM incubated for 24 hrs by Western blot analysis; type: functional, cell-based; conditions: dose 3-9 µM
[8] = target: T1, Alpha-ketoglutarate-dependent dioxygenase FTO (Homo sapiens, UniProt Q9C0B1); experiment: Inhibition of human FTO assessed as reduction in enzyme-mediated demethylation of m6A-ssDNA incubated for 2 hrs by PAGE analysis
Target sequence in this assay (Q9C0B1 whole entry): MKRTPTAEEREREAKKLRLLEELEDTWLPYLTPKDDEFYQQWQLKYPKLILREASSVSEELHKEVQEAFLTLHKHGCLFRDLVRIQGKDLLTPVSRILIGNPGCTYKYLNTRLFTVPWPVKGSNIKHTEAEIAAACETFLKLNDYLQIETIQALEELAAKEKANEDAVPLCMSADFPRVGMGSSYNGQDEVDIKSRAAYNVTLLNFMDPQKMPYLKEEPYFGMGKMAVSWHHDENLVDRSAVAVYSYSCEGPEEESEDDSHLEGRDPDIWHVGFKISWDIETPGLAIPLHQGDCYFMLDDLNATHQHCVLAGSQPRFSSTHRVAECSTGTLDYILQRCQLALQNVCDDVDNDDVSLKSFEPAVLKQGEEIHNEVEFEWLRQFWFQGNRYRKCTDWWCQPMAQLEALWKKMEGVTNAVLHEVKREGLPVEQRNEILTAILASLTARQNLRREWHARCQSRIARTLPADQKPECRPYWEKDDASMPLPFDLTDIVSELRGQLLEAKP

A549 [9] = experiment: Antiproliferative activity against human A549 cells cultured as 3D spheroids assessed as decrease in multicellular tumor spheroid size at 20 uM treated for 5 days by live-cell phase-contrast microscopy; type: functional, cell-based; conditions: time 5.0 day
[10] = target: T1, Alpha-ketoglutarate-dependent dioxygenase FTO; experiment: Inhibition of FTO in human A549 cells assessed as upregulation of gammaH2AX protein expression at 3 to 9 uM incubated for 24 hrs by Western blot analysis; type: cell-based; conditions: dose 3-9 µM
Target sequence in this assay (Q9C0B1 whole entry, looked up): as the sequence (Q9C0B1 whole entry) above

[11] = target: T1, Alpha-ketoglutarate-dependent dioxygenase FTO; experiment: Inhibition of FTO in human A549 cells assessed as upregulation of p53 protein expression incubated for 24 hrs by Western blot analysis; type: cell-based; conditions: dose 3-9 µM
Target sequence in this assay (Q9C0B1 whole entry, looked up): as the sequence (Q9C0B1 whole entry) above

[12] = target: T1, Alpha-ketoglutarate-dependent dioxygenase FTO; experiment: Inhibition of human FTO assessed as reduction in enzyme-mediated demethylation of m6A-ssDNA at 12.5 uM incubated for 2 hrs by PAGE analysis
Target sequence in this assay (Q9C0B1 whole entry, looked up): as the sequence (Q9C0B1 whole entry) above

A549 [13] = experiment: Induction of autophagy in human A549 cells assessed as upregulation of LC3-II protein expression at 3 to 9 uM incubated for 24 hrs by Western blot analysis; type: functional, cell-based; conditions: dose 3-9 µM

Compound | IC50 (A549 [1]) [µM] | IC50 [8] [µM] | inhibition [10] | inhibition [11] | inhibition [12] | IC50 [2] [µM] | IC50 [3] [µM] | IC50 (NB-4) [µM] | Activity (A549 [4]) | IC50 [5] [µM] | selectivity ratio [6] | Activity (A549 [7]) | Activity (A549 [9]) | Activity (A549 [13])
C#CCCCCNCCN1C(=O)c2cccc3cc(NC(=O)c4ccccn4)cc(c23)C1=O | 4.7 | – | – | – | – | 9.5 | 5.3 | 9.8 | – | – | – | – | – | –
CN(C)CCN1C(=O)c2cccc3cc(NC(=O)c4ccccn4)cc(c23)C1=O | 2.8 | 4.5 | Active | Dose-Dependent Effect | Active | 4.5 | 3.3 | 1.5 | Active | 9.9 | 3.5 | inactive | Active | Active
NCCN1C(=O)c2cccc3cc(NC(=O)c4ccccn4)cc(c23)C1=O | 5.2 | – | – | – | – | 7.3 | 4.1 | 8.4 | – | – | – | – | – | –
C#CCCC1(CCNCCN2C(=O)c3cccc4cc(NC(=O)c5ccccn5)cc(c34)C2=O)N=N1 | > 20 | – | – | – | – | > 20 | 8.5 | 10.6 | – | – | – | – | – | –
C#CCN(C)CCN1C(=O)c2cccc3cc(N)cc(c23)C1=O | > 20 | – | – | – | – | > 20 | > 20 | > 20 | – | > 20 | – | – | – | –
O=C(Nc1cc2c3c(cccc3c1)C(=O)N(CCN1C(=O)C=CC1=O)C2=O)c1ccccn1 | > 20 | – | – | – | – | > 20 | > 20 | > 20 | – | – | – | – | – | –
CN(C)CCN1C(=O)c2cccc3cc(N)cc(c23)C1=O [AMONAFIDE] | 4.3 | – | – | – | – | 9.5 | 9.2 | 5.7 | – | 8.8 | – | – | – | –
C#CCN(C)CCN1C(=O)c2cccc3cc(NC(=O)C=C)cc(c23)C1=O | > 20 | – | – | – | – | > 20 | > 20 | 13.9 | – | > 20 | – | – | – | –
CN(C)CCN1C(=O)c2cccc3cc([N+](=O)[O-])cc(c23)C1=O [MITONAFIDE] | 1.5 | 34.8 | – | – | – | 1.8 | 2.8 | 3.4 | – | 2.8 | 1.9 | – | – | –

Further lines, with some results ahead:

IC50 (A549 [1]) [µM] | IC50 [8] [µM] | inhibition [10] | inhibition [11] | inhibition [12] | Compound | IC50 [2] [µM] | IC50 [3] [µM] | IC50 (NB-4) [µM] | Activity (A549 [4]) | IC50 [5] [µM] | selectivity ratio [6] | Activity (A549 [7]) | Activity (A549 [9]) | Activity (A549 [13])
> 20 | – | – | – | – | C#CCN(C)CCN1C(=O)c2cccc3cc([N+](=O)[O-])cc(c23)C1=O | > 20 | > 20 | > 20 | – | > 20 | – | – | – | –
2.9 | – | – | – | – | CNCCN1C(=O)c2cccc3cc(NC(=O)c4ccccn4)cc(c23)C1=O | 7.2 | 3.5 | 12.9 | – | – | – | – | – | –
> 20 | – | – | – | – | C=CC(=O)N(C)CCN1C(=O)c2cccc3cc([N+](=O)[O-])cc(c23)C1=O | > 20 | > 20 | > 20 | – | > 20 | – | – | – | –
> 20 | – | – | – | – | C=CC(=O)N(C)CCN1C(=O)c2cccc3cc(N)cc(c23)C1=O | > 20 | > 20 | > 20 | – | > 20 | – | – | – | –
2.8 | 5.7 | Active | Dose-Dependent Effect | Active | CNCCN1C(=O)c2cccc3cc([N+](=O)[O-])cc(c23)C1=O | 6.2 | 2.5 | 7 | Active | 6.9 | 2.5 | inactive | Active | Active
